Consider 20 molecules from US7064120B2, “Tricyclic pyridyl carboxamides and derivatives thereof tocolytic oxytocin receptor antagonists” (Wyeth, priority 2001, dated 2006).

T1 sequence (P37288 whole entry): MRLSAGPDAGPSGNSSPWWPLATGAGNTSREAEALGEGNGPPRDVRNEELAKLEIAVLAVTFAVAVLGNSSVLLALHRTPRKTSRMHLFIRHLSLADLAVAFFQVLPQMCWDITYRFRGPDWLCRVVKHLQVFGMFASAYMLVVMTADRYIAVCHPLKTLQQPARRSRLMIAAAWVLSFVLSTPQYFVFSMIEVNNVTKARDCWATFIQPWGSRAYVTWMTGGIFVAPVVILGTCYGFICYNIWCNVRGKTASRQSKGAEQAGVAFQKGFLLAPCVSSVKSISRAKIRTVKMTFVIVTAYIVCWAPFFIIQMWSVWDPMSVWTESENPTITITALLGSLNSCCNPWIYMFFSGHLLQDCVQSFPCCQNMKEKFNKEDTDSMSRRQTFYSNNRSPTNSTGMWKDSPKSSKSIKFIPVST

The assay addresses T1, human vasopressin V1a receptor subtype (Homo sapiens, UniProt P37288).
T1 construct: host or cells: CHO cells, stably transfected (pZeoSV vector for the Thibonnier line)
As to the kind of experiment: Vasopressin binding in CHO cell membranes expressing human vasopressin V1a subtype receptors ([3H]Manning ligand radioligand binding). As to conditions: 100 nM. The method, then:
Vasopressin Binding in Chinese Hamster Ovary Cell Membranes Expressing Human Vasopressin V1a Subtype Receptors
The trypsin is removed by aspiration and the cells dislodged by tapping. Cell Culture medium (e.g. 30 mL for 1:30 split) is immediately added and mixed well to inactivate trypsin. 1 mL of detached cells is added to new culture flasks containing fresh cell culture medium (e.g., into 25 mL per T-150 flask), and mixed gently. The cells are incubated at 37° C. in 5% CO2. The medium is changed at 3 to 4 days interval (or as appropriate). […] All steps are done under sterile conditions.
The cells are washed twice gently with Hank's Balanced Salt solution (e.g,. use 10 mL per T-150 flask). […] The contents are transferred to centrifuge tubes (50 mL) kept in an ice bath. All subsequent steps are done at 4° C. The tubes are centrifuged at 300×g for 15 min (1380 rpm on SORVAL, Model RT6000D, using the rotor for 50 mL tubes). The supernatant is discarded and the cells suspended in homogenizing buffer(10 mM Tris-HCl containing 0.25 M sucrose and 1 mM EDTA, pH 7.4) ensuring that the volume of the buffer is about ten times the volume of the cell pellet. The cells are pooled into a centrifuge tube (50 mL) and homogenized with Polytron at setting 6 for 10 sec. The homogenate is transferred into a Potter-Elvjehm homogenizer and homogenized with 3 strokes. The homogenate is centrifuged at 1500×g for 10 min at 4° C. (3100 rpm using SORVAL, model RT6000D, using the rotor for 50 mL tubes). The pellet is discarded. The supernatant is centrifuged at 100,000×g for 60 min. at 4° C. (Beckman L8-80M ultracentrifuge; spin at 37,500 rpm with rotor type 70 Ti for 50 mL tubes; 38,000 rpm with type 80Ti for 15 mL tubes; or 35,800 rpm with rotor type 45Ti). The supernantant is discarded and the pellet suspended in 3 to 4 mL of Tris buffer (50 mM TRIS-HCl, pH 7.4). The protein content is estimated by the Bradford or Lowry method. The volume of the membrane suspension is adjusted with the membrane buffer (50 mM Tris-HCl containing 0.1% BSA and 0.1 mM PMSF) to give 3.0 mg/mL (or as appropriate) of protein. The membranes are aliquoted and stored at −70° C.
In wells of a 96-well format microtiter plate, is added 90, 110 or 130 μL (to make up a final volume of 200 μL) of assay buffer containing 50 mM of Tris-HCl (pH 7.4), BSA (heat inactivated, protease-free), […], 1 mg % aprotinin, 1 mg % leupeptin, 2 mg % 1,10-phenanthroline, 10 mg % trypsin inhibitor, and 0.1 mM PMSF. The inhibitors are added on the day of the experiment. The components are mixed at room temperature, and then kept in ice bath following adjustment of the pH to 7.4. […] 20 μL of 50% DMSO is added for Manning and other peptide ligands and the assay buffer volume is adjusted accordingly. To each well is added 50 μL of frozen membrane suspension thawed immediately prior to use and diluted in the assay buffer to the required concentration (equivalent to 25 to 50 μg of protein/well as needed). 20 μL of 8 nM [^3H]Manning ligand in the assay buffer, prepared just before use, is added, and incubated at room temperature for 60 min. shaking the plate on a mechanical shaker for the first 15 min. The incubation is stopped by rapid filtration of the plate contents followed by wash with ice-cold buffer (50 mM Tris-HCl, pH 7.4) using a cell harvester (Tomtek and Printed filtermat-B filter paper). The filter paper is thoroughly dried (7–12 min. in a microwave oven) and impregnated with MeltiLex B/H melt-on scintillation wax sheets and the radioactivity counted in a betaplate scintillation counter.
Binding data is either reported as percent inhibition at a certain concentration or if an IC50 was calculated, as a nanomolar concentration.
Broadly, the inhibition is the drop in the measured response relative to a control, in per cent. Take `COc1ccccc1-c1ccc(C(=O)N2Cc3ccc(C(=O)NCc4ccccn4)n3Cc3ccccc32)cc1C` [Example 24, 10-[(2′-Methoxy-2-methyl-[1,1′-biphenyl]-4-yl)carbonyl]-N-(2-pyridinylmethyl)-10,11-dihydro-5H-pyrrolo[2,1-c][1,4]benzodiazepine-3-carboxamide]: the inhibition at 0.1 µM was 7%.

For `COc1cccc(-c2ccc(C(=O)N3Cc4ccc(C(=O)NCc5ccccn5)n4Cc4ccccc43)cc2C)c1` [Example 25, 10-[(3′-Methoxy-2-methyl-[1,1′-biphenyl]-4-yl)carbonyl]-N-(2-pyridinylmethyl)-10,11-dihydro-5H-pyrrolo[2,1-c][1,4]benzodiazepine-3-carboxamide], the inhibition at 0.1 µM was determined as 21%.

Regarding `COc1ccccc1-c1ccc(C(=O)N2Cc3ccc(C(=O)NCc4ccccn4)n3Cc3ccccc32)cc1` [Example 26, 10-[(2′-Methoxy-[1,1′-biphenyl]-4-yl)carbonyl]-N-(2-pyridinylmethyl)-10,11-dihydro-5H-pyrrolo[2,1-c][1,4]benzodiazepine-3-carboxamide], the inhibition at 0.1 µM came to 17%.

Regarding `Cc1ccccc1-c1ccc(C(=O)N2Cc3ccc(C(=O)NCc4ccccn4)n3Cc3ccccc32)cc1` [Example 27, 10-[(2′-Methyl-[1,1′-biphenyl]-4-yl)carbonyl]-N-(2-pyridinylmethyl)-10,11-dihydro-5H-pyrrolo[2,1-c][1,4]benzodiazepine-3-carboxamide], the inhibition at 0.1 µM is 20%.

Take `COc1cc(C(=O)N2Cc3ccc(C(=O)NCc4ccccn4)n3Cc3ccccc32)ccc1-c1ccccc1C` [Example 28, 10-[(2-Methoxy-2′-methyl-[1,1′-biphenyl]-4-yl)carbonyl]-N-(2-pyridinylmethyl)-10,11-dihydro-5H-pyrrolo[2,1-c][1,4]benzodiazepine-3-carboxamide]: the inhibition at 0.1 µM amounted to 28%.

On to `COc1cc(-c2ccccc2C)c(Cl)cc1C(=O)N1Cc2ccc(C(=O)NCc3ccccn3)n2Cc2ccccc21` [Example 29, 10-[(6-Chloro-3-methoxy-2′-methyl-[1,1′-biphenyl]-4-yl)carbonyl]-N-(2-pyridinylmethyl)-10,11-dihydro-5H-pyrrolo[2,1-c][1,4]benzodiazepine-3-carboxamide], for which the inhibition at 0.1 µM worked out at 0%.

As to `COc1cccc(-c2cc(OC)c(C(=O)N3Cc4ccc(C(=O)NCc5ccccn5)n4Cc4ccccc43)cc2Cl)c1` [Example 30, 10-[(6-Chloro-3,3′-dimethoxy-[1,1′-biphenyl]-4-yl)carbonyl]-N-(2-pyridinylmethyl)-10,11-dihydro-5H-pyrrolo[2,1-c][1,4]benzodiazepine-3-carboxamide], the inhibition at 0.1 µM is -7%.

On to `COc1cc(C(=O)N2Cc3ccc(C(=O)NCc4ccccn4)n3Cc3ccccc32)ccc1-c1cccc2ccccc12` [Example 31, 10-[3-Methoxy-4-(naphthalen-1-yl)benzoyl]-N-(2-pyridinylmethyl)-10,11-dihydro-5H-pyrrolo[2,1-c][1,4]benzodiazepine-3-carboxamide], for which the inhibition at 0.1 µM came out at 6%.

On to `COc1ccccc1-c1ccc(C(=O)N2Cc3ccc(C(=O)NCc4ccccn4)n3Cc3ccccc32)cc1OC` [Example 32, 10-[(2,2′-Dimethoxy-[1,1′-biphenyl]-4-yl)carbonyl]-N-(2-pyridinylmethyl)-10,11-dihydro-5H-pyrrolo[2,1-c][1,4]benzodiazepine-3-carboxamide], for which the inhibition at 0.1 µM turned out to be 13%.

On to `COc1cccc(-c2ccc(C(=O)N3Cc4ccc(C(=O)NCc5ccccn5)n4Cc4ccccc43)cc2OC)c1` [Example 33, 10-[(2,3′-Dimethoxy-[1,1′-biphenyl]-4-yl)carbonyl]-N-(2-pyridinylmethyl)-10,11-dihydro-5H-pyrrolo[2,1-c][1,4]benzodiazepine-3-carboxamide], for which the inhibition at 0.1 µM stood at 23%.

For the molecule `O=C(NCc1ccccn1)c1ccc2n1Cc1ccccc1N(C(=O)c1ccc(-c3cccc4ccccc34)cc1Cl)C2` [Example 34, 10-[2-Chloro-4-(naphthalen-1-yl)benzoyl]-N-(2-pyridinylmethyl)-10,11-dihydro-5H-pyrrolo[2,1-c][1,4]benzodiazepine-3-carboxamide], the inhibition at 0.1 µM was 5%.

For the molecule `Cc1cc(C(=O)N2Cc3ccc(C(=O)NCc4ccccn4)n3Cc3ccccc32)ccc1-c1ccccc1C(F)(F)F` [Example 35, 10-{[2-Methyl-2′-trifluoromethyl-[1,1′-biphenyl]-4-yl]carbonyl}-N-(2-pyridinylmethyl)-10,11-dihydro-5H-pyrrolo[2,1-c][1,4]benzodiazepine-3-carboxamide], the inhibition at 0.1 µM came out at 4%.

Regarding `COc1ccccc1-c1ccc(C(=O)N2Cc3ccc(C(=O)NCc4cccnc4)n3Cc3ccccc32)cc1C` [Example 36, 10-[(2′-Methoxy-2-methyl-[1,1′-biphenyl]-4-yl)carbonyl]-N-(3-pyridinylmethyl)-10,11-dihydro-5H-pyrrolo[2,1-c][1,4]benzodiazepine-3-carboxamide], the inhibition at 0.1 µM is -3%.

With `Cc1ccccc1-c1ccc(C(=O)N2Cc3ccc(C(=O)NCc4cccnc4)n3Cc3ccccc32)cc1C` [Example 37, 10-[(2,2′-Dimethyl-[1,1′-biphenyl]-4-yl)carbonyl]-N-(3-pyridinylmethyl)-10,11-dihydro-5H-pyrrolo[2,1-c][1,4]benzodiazepine-3-carboxamide], the inhibition at 0.1 µM worked out at 12%.

For the molecule `COc1cccc(-c2ccc(C(=O)N3Cc4ccc(C(=O)NCc5cccnc5)n4Cc4ccccc43)cc2C)c1` [Example 38, 10-[(3′-Methoxy-2-methyl-[1,1′-biphenyl]-4-yl)carbonyl]-N-(3-pyridinylmethyl)-10,11-dihydro-5H-pyrrolo[2,1-c][1,4]benzodiazepine-3-carboxamide], the inhibition at 0.1 µM is 0%.

In the case of `COc1ccccc1-c1ccc(C(=O)N2Cc3ccc(C(=O)NCc4cccnc4)n3Cc3ccccc32)cc1` [Example 39, 10-[(2′-Methoxy-[1,1′-biphenyl]-4-yl)carbonyl]-N-(3-pyridinylmethyl)-10,11-dihydro-5H-pyrrolo[2,1-c][1,4]benzodiazepine-3-carboxamide], the inhibition at 0.1 µM came to 10%.

As to `Cc1ccccc1-c1ccc(C(=O)N2Cc3ccc(C(=O)NCc4cccnc4)n3Cc3ccccc32)cc1` [Example 40, 10-[(2′-Methyl-[1,1′-biphenyl]-4-yl)carbonyl]-N-(3-pyridinylmethyl)-10,11-dihydro-5H-pyrrolo[2,1-c][1,4]benzodiazepine-3-carboxamide], the inhibition at 0.1 µM was found to be 15%.

In the case of `COc1cc(C(=O)N2Cc3ccc(C(=O)NCc4cccnc4)n3Cc3ccccc32)ccc1-c1ccccc1C` [Example 41, 10-[(2-Methoxy-2′-methyl-[1,1′-biphenyl]-4-yl)carbonyl]-N-(3-pyridinylmethyl)-10,11-dihydro-5H-pyrrolo[2,1-c][1,4]benzodiazepine-3-carboxamide], the inhibition at 0.1 µM was 20%.

On to `COc1cc(-c2ccccc2C)c(Cl)cc1C(=O)N1Cc2ccc(C(=O)NCc3cccnc3)n2Cc2ccccc21` [Example 42, 10-[(6-Chloro-3-methoxy-2′-methyl-[1,1′-biphenyl]-4-yl)carbonyl]-N-(3-pyridinylmethyl)-10,11-dihydro-5H-pyrrolo[2,1-c][1,4]benzodiazepine-3-carboxamide], for which the inhibition at 0.1 µM is -11%.

Turning to `COc1cccc(-c2cc(OC)c(C(=O)N3Cc4ccc(C(=O)NCc5cccnc5)n4Cc4ccccc43)cc2Cl)c1` [Example 43, 10-[(6-Chloro-3,3′-dimethoxy-[1,1′-biphenyl]-4-yl)carbonyl]-N-(3-pyridinylmethyl)-10,11-dihydro-5H-pyrrolo[2,1-c][1,4]benzodiazepine-3-carboxamide], the inhibition at 0.1 µM is -6%.
